{"source": "patent US20200207820A1", "about": "“ANTIVIRAL, ANTIFIBROTIC AND ANTICANCER ACTIVITIES OF ROYAL-JELLY PROTEINS” (priority 2017, published 2020)", "molecules": {"B1": {"name": "MRJP2: major royal jelly protein 2, bound protein purified from PF50 by CM-Sephadex ion-exchange chromatography (protein, UniProt O77061 18-452, looked up)", "Major royal jelly protein 2": "AIVRENSPRNLEKSLNVIHEWKYFDYDFGSEERRQAAIQSGEYDHTKNYPFDVDQWRDKTFVTILRYDGVPSTLNVISGKTGKGGRLLKPYPDWSFAEFKDCSKIVSAFKIAIDKFDRLWVLDSGLVNRTVPVCAPKLHVFDLKTSNHLKQIEIPHDIAVNATTGKGGLVSLAVQAIDLANTLVYMADHKGDALIVYQNADDSFHRLTSNTFDYDPRYAKMTIDGESFTLKNGICGMALSPVTNNLYYSPLASHGLYYVNTAPFMKSQFGENNVQYQGSEDILNTQSLAKAVSKNGVLFVGLVGNSAVGCWNEHQSLQRQNLEMVAQNDRTLQMIAGMKIKEELPHFVGSNKPVKDEYMLVLSNRMQKIVNDDFNFDDVNFRILGANVKELIRNTHCVNNNQNDNIQNTNNQNDNNQKNNKKNANNQKNNNQNDN"}}, "key": {"HepG-2 cell line": {"tested_on": "HepG-2 cell line", "assay": "Anti-cancer assay (MTT)", "format": "cell-based, human", "settings": "HepG-2 cells, 72 h", "procedure": "The cytotoxic effect of RJ and its isolated PFs against HepG-2 cell line were evaluated. The cell viability was determined by MTT assay to investigate the cytotoxicity. Cells (3×10^3/well) were seeded in 96-well plate and left to attach for overnight. Serial concentrations (6.25-100 μM) of each of the tested compounds were added to the attached cells and incubated for 72 h at 37° C. in an atmosphere of 5% CO2 and the untreated cells were included as negative control. Then, 20 μl of MTT solution (0.5 mg/ml) was added to each well and the plate was incubated at 37° C. and 5% CO2 for 4 h. The medium with MTT was replaced by 150 μl of DMSO and the absorbance of the produced color was read at 570 nm by the microplate reader. The concentration of each of the studied compounds that inhibit the cancer cell growth by 50% (IC50 values) was determined from the dose-response curves. Additionally, the morphological changes of the tumor cells were examined using the phase-contrast microscope."}, "[1]": {"assay": "Acute toxicity (Karber's method)", "format": "in vivo, male Albino rats", "procedure": "Karber's method was used to study the acute toxicity effect of RJ in comparison with SOV using male Albino rats and the median lethal dosage (LD50) was calculated.\nFifty-five male Albino rats (80-120 g) were purchased from MISR University for Science and Technology (animal welfare assurance number A5865-01). Animals were housed in metal cages and allowed free access to a standard commercial diet and tap water. Rats were kept under conventional conditions of temperature, humidity and twelve hours light/dark cycle. All rats were acclimatized to the laboratory environment for one week prior to handling and were observed daily for abnormal signs. Handling of animals complied with the international guide for the care and use of laboratory animals (National Research Council, 1996).\nAnimals were divided into eleven groups (five animals in each) starting from group I to group X beside the control (received only water as the vehicle). Groups from (I) to (V) were administered RJ intraperitoneally, while groups from (VI) to (X) were orally received SOV using the gavage tube. RJ and SOV were given to the animals at various doses (140, 350, 700, 2500 and 5000 mg/kg bw), one dose for each group of animals (group I and VI received the lowest dose).\nAll animals were left for 24 h after RJ or SOV administration, and then the number of mortality in each group was recorded for calculation of the LD50 value. Also, the weights of animals in each group were recorded before sacrificing by decapitation. Blood samples were collected in heparin tubes by cardiac puncture for assessment of the erythrocytes, hematocrit (HCT), hematimetric indices, hemoglobin (Hb), platelets, and leukocytes (full and differential counts). In addition, ALT and AST, total proteins, albumin, urea, creatinine, sodium, potassium, triglycerides (TG) and cholesterol were determined using available commercial kits (RAM, Egypt). The vital organs including liver, lung, kidney, and spleen were carefully excised, weighed and examined."}, "HCV [2]": {"tested_on": "HCV", "assay": "Quantitative analysis of intracellular HCV-RNA (Cobas Ampliprep TaqMan)", "format": "cell-based, Hepatitis C virus", "settings": "PBMCs and HepG-2 cells, 72 h; SOV in PBMCs only", "procedure": "(§1) PBMCs were obtained by Ficoll-Hypaque density gradient centrifugation method as described previously. In brief, the blood samples from healthy volunteers were diluted with equal volume of PBS, carefully layered on Ficoll-Hypaque, and centrifuged at 2000 rpm, 25° C. for 30 min. Then the undisturbed PBMCs layer (interface) was carefully transferred out, washed with 40 ml RPMI-1640 medium, and centrifuged at 1650 rpm for 10 min. Finally, the supernatant was removed and the cells were suspended in 5 ml of RPMI-1640 medium containing 10% FBS and counted using trypan blue stain.\n(§2) HepG-2 cells were grown in RPMI-1640 medium (HyClone) supplemented with 10% heat-inactivated FBS.\n(§3) Serum samples were obtained from HCV and HBV infected […] patients […] after agreement by the ethics committee. The HCV and HBV samples were positive for genotype 4a and D, respectively. The infected patients were neither under treatment prior to the study nor co-infected. The sera were kept at −80° C. until use. […]\n(§4) SOV at the concentration of 4 mg was incubated only with HCV or HBV-infected PBMCs due to its potent anti-cancer effect. […] Then the HCV-RNA and HBV-DNA within these cells were quantified using the fully automated Cobas Ampliprep TaqMan Analyzer (CAP-CTM). This technique is one of the most recent techniques that used for diagnosis of viral hepatitis quantitatively. […]"}, "hepatocytes": {"tested_on": "hepatocytes", "assay": "In vitro assessment of liver fibrosis: CCl4-induced fibrosis in hepatocytes", "format": "cell-based, Albino rats", "procedure": "Hepatocytes were isolated from the liver of two male Albino rats 1 week of age. Rats were anesthetized, then liver was dissected, washed and incubated for 15 min with 10× penicillin and streptomycin. Afterward, the liver was washed using PBS, minced and incubated for 30 min with 3 U/mL of collagenase I with gentle shaking to obtain the cell suspension. The solution was centrifuged for […] at 1000 rpm and the pellet (hepatocytes) was washed, suspended in William's E medium containing 10% FBS and incubated at […] in CO2 incubator. After 90% cell confluent, hepatocytes were passaged with trypsin-EDTA. Then cells were stained with trypan blue, checked for viability and counted using the phase contrast inverted microscope (Olympus IX 81, Tokyo, Japan).\nFor induction of fibrosis, hepatocytes were incubated with various concentrations (0.13-1.30 mM) of CCl4 for 48 h. At the end of the incubation period, the cell viability was assessed and the IC50 value (half maximal inhibitory concentration of CCl4 to the hepatocytes growth) was calculated by the GraphPad Instat software version 3. This value was used for in vitro induction of fibrosis in hepatocytes (FM). After induction, Fb1 was incubated with the safe concentration of each of the studied compounds and incubated for 72 h at 5% CO2 and 37° C. The normal cells and the untreated Fb1 (Fb) were involved as negative and positive control cells, respectively.\nAt the end of the incubation period, media were collected and used in the assessment of the hepatocyte damage indices. However, cells were examined morphologically for identification of apoptosis.\nAlanine and aspartate aminotransferases (ALT and AST), and albumin were determined using available commercial kits (RAM, Egypt). TNF-α (ELISA kit, RayBiotech, USA) and collagen IV (ELISA kit, Kamiya Biomedical) were determined following the manufacturer's instructions. Nitric oxide (NO) level was assessed by measurement of the nitrite using the Griess reaction, which produced colored azo dye with a maximum absorbance at 490 nm. Hydroxyproline content in the medium was measured using chloramines T and […] solutions. The absorbance of the produced color was read spectrophotometrically at 560 nm and the concentration was determined from the hydroxyproline calibration curve.\nApoptosis was investigated by double staining cells after washing with PBS with 100 μg/mL of ethidium bromide (EB) and acridine orange (AO) as described previously and then visualized under the fluorescent phase contrast microscope."}, "HCV [3]": {"tested_on": "HCV", "assay": "Qualitative screening for HCV (+) strand RNA by RT-nested PCR in infected PBMCs and HepG-2 cells", "format": "cell-based, Hepatitis C virus", "settings": "HCV-infected PBMCs and HepG-2 cells, 72 h; RJ 0.2 and 1 mg, PFs 1 mg, MRJPs 250 μg, SOV 4 mg (PBMCs only)", "procedure": "as §1, §2, §3\nAfter cellular infection, the infected medium was replaced with a fresh RPMI-1640 medium containing 10% FBS for positive control wells. […] The HCV (+) strand was detected by reverse transcription-nested polymerase chain reaction (RT-nested PCR) using the Ready-To-Go RT-PCR beads (Amersham Pharmacia Biotech, Piscataway, N.J., USA) following the instructions. […]"}, "HBV": {"tested_on": "HBV", "assay": "Quantitative analysis of intracellular HBV-DNA (Cobas Ampliprep TaqMan)", "format": "cell-based, hepatitis B virus", "settings": "PBMCs and HepG-2 cells, 72 h; SOV in PBMCs only", "procedure": "as §1, §2, §3, §4"}, "[4]": {"settings": "SOV oral 2500 and 5000 mg/kg bw"}}, "note": "Entries after “also recorded” stand apart in the source; their conditions may differ.", "data": [{"molecule": "CC(C)OC(=O)[C@H](C)N[P@](=O)(OC[C@H]1O[C@@H](n2ccc(=O)[nH]c2=O)[C@](C)(F)[C@@H]1O)Oc1ccccc1", "note": "[SOV, Sofosbuvir]", "values": [{"measurement": "cytotoxic (anticancer) effect", "setting": "HepG-2 cell line", "value": "potent activity"}, {"measurement": "cytotoxic (anticancer) effect", "setting": "HepG-2 cell line; listed as Sovaldi", "value": "more potent anticancer effect than the RJ proteins"}, {"measurement": "body weights", "setting": "[1]; 24 h, all doses, versus control group", "value": "didn't cause any significant change; also recorded: no significant change"}, {"measurement": "hematological parameters", "setting": "[1]; 24 h after administration", "value": "Slight changes"}, {"measurement": "serum urea level", "setting": "[1]; SOV 350-5000 mg/kg bw", "value": "significant elevation"}, {"measurement": "potassium level", "setting": "[1]; SOV 2500, 5000 mg/kg bw", "value": "depleted"}, {"measurement": "serum sodium level", "setting": "[1]; SOV 2500, 5000 mg/kg bw", "value": "elevated"}, {"measurement": "ALT activity", "setting": "[1]; SOV 2500 and 5000 mg/kg bw", "value": "didn't affect"}, {"measurement": "activity of AST", "setting": "[1]; SOV 2500 and 5000 mg/kg bw", "value": "significantly elevated"}, {"measurement": "serum level of albumin", "setting": "[1]; SOV 2500 and 5000 mg/kg bw", "value": "significantly reduce"}, {"measurement": "total proteins level", "setting": "[1]; SOV 2500 and 5000 mg/kg bw", "value": "didn't affect"}, {"measurement": "TG level", "setting": "[1]; SOV nearly at all doses", "value": "significantly increased"}, {"measurement": "cholesterol level", "setting": "[1]; SOV nearly at all doses", "value": "significantly increased"}, {"measurement": "% organ-body weight ratio, spleen", "setting": "[1]; SOV oral 350 to 5000 mg/kg bw", "value": "enlargement"}, {"measurement": "% organ-body weight ratio, liver", "setting": "[1]; [4]", "value": "significant enlargement"}, {"measurement": "% organ-body weight ratio, lung", "setting": "[1]; [4]", "value": "significant enlargement"}, {"measurement": "% organ-body weight ratio, kidney", "setting": "[1]; SOV oral all given doses (140-5000 mg/kg bw)", "value": "significant enlargement"}, {"measurement": "mortality", "setting": "[1]; after 24 h, all studied doses (140-5000 mg/kg bw), RJ intraperitoneal, SOV oral", "value": "no mortality"}, {"measurement": "toxic dose", "setting": "[1]; rats, all the studied doses", "value": "≥ 140", "unit": "mg/kg"}, {"measurement": "toxicity on vital organs", "setting": "[1]; rats, liver, lung, kidney, spleen", "value": "highly toxic effects on kidney, spleen and lung and less toxicity on the liver; also recorded: highly toxic"}, {"measurement": "efficacy against HCV (intracellular HCV)", "setting": "HCV [2]", "value": "less anti-HCV"}, {"measurement": "collagen and hydroxyproline levels", "setting": "hepatocytes; CCl4-induced fibrosis in hepatocytes (Fb1)", "value": "suppressive effect"}, {"measurement": "antifibrotic / therapeutic effect overall", "setting": "hepatocytes; CCl4-induced fibrosis in hepatocytes, compared with SM and SOV", "value": "less antifibrotic activities"}, {"measurement": "inflammatory mediators' level (NO and TNF-α)", "setting": "hepatocytes; fibrotic cells (Fb1)", "value": "anti-inflammatory effect"}, {"measurement": "hepatocytes morphology / apoptosis (acridine orange/ethidium bromide staining)", "setting": "hepatocytes; fibrotic hepatocytes (Fb1), 72 h treatment, 200 μg/mL", "value": "less potency"}, {"measurement": "anti-HCV effect (HCV (+) strand RNA, RT-nested PCR)", "setting": "HCV [3]", "value": "anti-HCV effect"}, {"measurement": "efficacy against HBV / activity of HBV (intracellular HBV)", "setting": "HBV", "value": "increases the activity of HBV"}]}, {"molecule": "B1", "values": [{"measurement": "cytotoxic (anticancer) effect", "setting": "HepG-2 cell line", "value": "nearly as potent as SOY and 5-FU"}, {"measurement": "inflammatory mediators' level (NO and TNF-α)", "setting": "hepatocytes; fibrotic cells (Fb1)", "value": "Normalization"}, {"measurement": "liver function parameters (ALT, AST, albumin) in medium", "setting": "hepatocytes; fibrotic cells (Fb1)", "value": "Improvement"}, {"measurement": "anti-HCV effect (HCV (+) strand RNA, RT-nested PCR)", "setting": "HCV [3]", "value": "anti-HCV effect"}]}]}
